Assay results published in the NIST ThermoML archive (doi:10.1016/j.jct.2007.04.005).
± gives the expanded uncertainty stated by the source.

Experiment: xn = mol fraction of the nth substance listed
Details: 298.15 K, Liquid

CCCCCCCCC [nonane] + C1CCCCC1
mass density [kg/m3]
Details	x2 = 0	x2 = 0.09303	x2 = 0.2009	x2 = 0.3051	x2 = 0.417	x2 = 0.512	x2 = 0.5996	x2 = 0.7052	x2 = 0.7993	x2 = 0.9039
18340 kPa	–	–	–	–	–	–	–	760.7 ± 1.2	768 ± 1.2	777.3 ± 1.1
20370 kPa	728.6 ± 1.5	731.6 ± 1.5	735.7 ± 1.5	740 ± 1.4	745.1 ± 1.4	749.8 ± 1.4	755.2 ± 1.3	762.1 ± 1.3	769.4 ± 1.2	778.8 ± 1.2
22390 kPa	730 ± 1.6	732.9 ± 1.6	737.1 ± 1.5	741.4 ± 1.5	746.5 ± 1.5	751.3 ± 1.4	756.6 ± 1.4	763.5 ± 1.3	770.8 ± 1.3	780.2 ± 1.3
24420 kPa	731.3 ± 1.7	734.2 ± 1.6	738.4 ± 1.6	742.7 ± 1.6	747.9 ± 1.5	752.6 ± 1.5	758 ± 1.5	764.9 ± 1.4	772.2 ± 1.4	781.6 ± 1.3
26450 kPa	732.6 ± 1.7	735.6 ± 1.7	739.8 ± 1.7	744.1 ± 1.6	749.2 ± 1.6	753.9 ± 1.6	759.3 ± 1.5	766.3 ± 1.5	773.5 ± 1.4	783 ± 1.4
28470 kPa	733.9 ± 1.8	736.9 ± 1.8	741.1 ± 1.8	745.3 ± 1.7	750.5 ± 1.7	755.2 ± 1.6	760.6 ± 1.6	767.6 ± 1.5	774.9 ± 1.5	784.3 ± 1.4
29490 kPa	734.5 ± 1.9	737.5 ± 1.8	741.7 ± 1.8	746 ± 1.8	751.1 ± 1.7	755.8 ± 1.7	761.3 ± 1.6	768.2 ± 1.6	775.5 ± 1.5	785 ± 1.5
30500 kPa	735.1 ± 1.9	738.1 ± 1.9	742.3 ± 1.8	746.6 ± 1.8	751.8 ± 1.7	756.5 ± 1.7	761.9 ± 1.7	768.9 ± 1.6	776.2 ± 1.6	785.7 ± 1.5
32530 kPa	736.4 ± 2	739.4 ± 1.9	743.6 ± 1.9	747.9 ± 1.9	753 ± 1.8	757.7 ± 1.8	763.2 ± 1.7	770.2 ± 1.7	777.5 ± 1.6	787 ± 1.5
34550 kPa	737.6 ± 2	740.7 ± 2	744.8 ± 2	749.1 ± 1.9	754.3 ± 1.9	759 ± 1.8	764.5 ± 1.8	771.5 ± 1.7	778.7 ± 1.7	788.2 ± 1.6
36580 kPa	738.8 ± 2.1	741.8 ± 2.1	746 ± 2	750.3 ± 2	755.5 ± 1.9	760.2 ± 1.9	765.7 ± 1.9	772.7 ± 1.8	780 ± 1.7	789.5 ± 1.7
38600 kPa	740 ± 2.2	743 ± 2.2	747.2 ± 2.1	751.5 ± 2.1	756.7 ± 2	761.4 ± 2	766.9 ± 1.9	773.9 ± 1.9	781.4 ± 1.8	790.7 ± 1.7
39620 kPa	740.6 ± 2.2	743.6 ± 2.2	747.8 ± 2.1	752.1 ± 2.1	757.3 ± 2.1	762 ± 2	767.5 ± 2	774.5 ± 1.9	–	791.3 ± 1.7
